Assays:
[1] = Stability of Tc-99m labeled compound, labeling purity by HPLC; assay type: physicochemical; details: for radiochemical purity: cysteine and VB1, until 4 hours (Table 5)
Method: 2 mL of Tc-99m was added dropwise to a lyophilized vial including 0.1 mg of GP-104, 15 μg of SnCl2, and 10 μg of cysteine, the vial was allowed to stand at room temperature for 10 minutes, and the reaction was terminated by adjusting pH to 7 using a NaOH solution. Labeling purity was confirmed to be 93.21% by HPLC (analysis conditions: Luna C18 250×4.6 mm, phosphate buffer:acetonitrile (100:0, 0 to 5 minutes; 80:20, 5 to 10 minutes; 80:20, 17 minutes; 100:0, 17.1 minutes). 100:0. 20 min), 1.0 mL/min, UV=280 nm).
In order to confirm the effect of cysteine addition after the reaction, the following experiment was performed: 0.1 mg of GP-104 was dissolved in water for injection, the pH was adjusted to about 3.5 when 10 μL of SnCl2 (1.5 mg/mL) and 2 mL of Tc-99m were added thereto, and the resulting mixture was allowed to stand at room temperature for 10 minutes. The reaction was terminated by adjusting the pH to 7 using a NaOH solution and 10 μL of cysteine (1.0 mg/mL). Labeling purity was confirmed to be 91.4% using HPLC in the same manner as in Example 2-7.
After 0.1 mg of GP-104 was dissolved in water for injection, pH was adjusted to about 3.5 and the resulting solution was allowed to stand at room temperature for 10 minutes when 10 μL of SnCl2 (1.5 mg/mL), 10 μL of cysteine (1.0 mg/mL) and 2 mL of Tc-99m were added thereto, and the reaction was terminated by adjusting the pH to 7 using a NaOH solution. Labeling purity was confirmed to be 94.84% using HPLC in the same manner as in Example 2-7.
HCl and NaOH was additionally added dropwise to the solution of Example 2-8 to perform a stability evaluation by adjusting the final pH of the solution to acidic (pH 5.5) and basic (pH 8.5) conditions, and labeling purity was confirmed using HPLC in the same manner as in Example 2-7.
HCl and NaOH was additionally added dropwise to the solution of Example 2-9 to perform a stability evaluation by adjusting the final pH of the solution to acidic (pH 5.5) and basic (pH 8.5) conditions, and labeling purity was confirmed using HPLC in the same manner as in Example 2-7.
HCl and NaOH was additionally added dropwise to the solution of Example 2-10 to perform a stability evaluation by adjusting the final pH of the solution to acidic (pH 5.5) and basic (pH 8.5) conditions, and labeling purity was confirmed using HPLC in the same manner as in Example 2-7.
0.1 mg of GP-105 was dissolved in water for injection, the pH was adjusted to about 3.5 when 10 μL of SnCl2 (1.5 mg/mL) and 2 mL of Tc-99m were added thereto, and the resulting mixture was allowed to stand at room temperature for 10 minutes. The reaction was terminated by adjusting the pH to 7 using a NaOH solution and 10 μL of cysteine (1.0 mg/mL). Labeling purity was confirmed to be 98.1% using HPLC in the same manner as in Example 2-7.
HCl and NaOH was additionally added dropwise to the solution of Example 2-12 to perform a stability evaluation by adjusting the final pH of the solution to acidic (pH 5.5) and basic (pH 8.5) conditions, and labeling purity was confirmed using HPLC in the same manner as in Example 2-7.
HCl and NaOH was additionally added dropwise to the solution of Example 2-13 to perform a stability evaluation by adjusting the final pH of the solution to acidic (pH 5.5) and basic (pH 8.5) conditions, and labeling purity was confirmed using HPLC in the same manner as in Example 2-7.
HCl and NaOH was additionally added dropwise to the solution of Example 2-14 to perform a stability evaluation by adjusting the final pH of the solution to acidic (pH 5.5) and basic (pH 8.5) conditions, and labeling purity was confirmed using HPLC in the same manner as in Example 2-7.

glycoprotein IIb/IIIa = target: T1, glycoprotein IIb/IIIa (Rattus norvegicus, UniProt A0A8I6GGN2+Q8R2H2); experiment: Glycoprotein IIb/IIIa specific uptake in thrombotic disease model, gamma counter / microSPECT; assay type: in vivo, rats
T1 construct: a disease model in which a thrombus was formed with glycoprotein IIb/IIIa overexpressed; from tissue; host or cells: in vivo rat carotid artery thrombus (ferric chloride model)
Excerpt: After 6-week-old rats were anesthetized to make a thrombotic disease model, the carotid artery was secured by opening the skin on the carotid artery side. Then, a filter paper soaked with a 5% ferric chloride solution was exposed on the artery, and then washed three times or more with physiological saline, and the incised skin was sutured again to make a model. […]

[2] = Stability of Tc-99m labeled compound, labeling purity by HPLC; assay type: physicochemical; details: Ex 3-3
[3] = gamma counter, sacrificed at the 2nd hour

T1 sequence (A0A8I6GGN2 32-1037): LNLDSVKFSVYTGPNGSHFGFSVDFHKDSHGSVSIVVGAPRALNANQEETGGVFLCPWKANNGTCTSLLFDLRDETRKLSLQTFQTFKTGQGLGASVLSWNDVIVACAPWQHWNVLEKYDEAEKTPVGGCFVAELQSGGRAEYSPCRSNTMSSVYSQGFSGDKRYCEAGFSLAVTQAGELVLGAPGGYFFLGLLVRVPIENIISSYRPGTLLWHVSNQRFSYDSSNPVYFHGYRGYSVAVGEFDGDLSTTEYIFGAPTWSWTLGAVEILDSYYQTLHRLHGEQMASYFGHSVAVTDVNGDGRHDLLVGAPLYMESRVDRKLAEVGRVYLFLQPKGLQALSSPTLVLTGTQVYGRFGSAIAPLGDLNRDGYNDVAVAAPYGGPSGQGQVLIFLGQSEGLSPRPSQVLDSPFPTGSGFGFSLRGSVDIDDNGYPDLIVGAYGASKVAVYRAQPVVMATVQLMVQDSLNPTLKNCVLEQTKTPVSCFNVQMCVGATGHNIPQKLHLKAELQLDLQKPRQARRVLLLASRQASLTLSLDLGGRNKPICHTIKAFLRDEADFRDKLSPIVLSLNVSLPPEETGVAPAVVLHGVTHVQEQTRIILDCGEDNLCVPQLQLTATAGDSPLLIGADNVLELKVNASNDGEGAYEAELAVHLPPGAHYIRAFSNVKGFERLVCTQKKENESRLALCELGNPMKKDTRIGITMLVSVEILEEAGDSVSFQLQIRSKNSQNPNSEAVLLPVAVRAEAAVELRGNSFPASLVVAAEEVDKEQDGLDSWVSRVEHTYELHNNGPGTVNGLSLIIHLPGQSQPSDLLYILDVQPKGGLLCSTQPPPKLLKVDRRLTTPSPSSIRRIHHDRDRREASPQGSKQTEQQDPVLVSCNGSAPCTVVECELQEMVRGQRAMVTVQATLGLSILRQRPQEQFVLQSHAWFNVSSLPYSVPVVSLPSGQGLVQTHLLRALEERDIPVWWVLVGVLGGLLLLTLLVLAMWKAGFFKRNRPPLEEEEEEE
T1 sequence (Q8R2H2 26-787): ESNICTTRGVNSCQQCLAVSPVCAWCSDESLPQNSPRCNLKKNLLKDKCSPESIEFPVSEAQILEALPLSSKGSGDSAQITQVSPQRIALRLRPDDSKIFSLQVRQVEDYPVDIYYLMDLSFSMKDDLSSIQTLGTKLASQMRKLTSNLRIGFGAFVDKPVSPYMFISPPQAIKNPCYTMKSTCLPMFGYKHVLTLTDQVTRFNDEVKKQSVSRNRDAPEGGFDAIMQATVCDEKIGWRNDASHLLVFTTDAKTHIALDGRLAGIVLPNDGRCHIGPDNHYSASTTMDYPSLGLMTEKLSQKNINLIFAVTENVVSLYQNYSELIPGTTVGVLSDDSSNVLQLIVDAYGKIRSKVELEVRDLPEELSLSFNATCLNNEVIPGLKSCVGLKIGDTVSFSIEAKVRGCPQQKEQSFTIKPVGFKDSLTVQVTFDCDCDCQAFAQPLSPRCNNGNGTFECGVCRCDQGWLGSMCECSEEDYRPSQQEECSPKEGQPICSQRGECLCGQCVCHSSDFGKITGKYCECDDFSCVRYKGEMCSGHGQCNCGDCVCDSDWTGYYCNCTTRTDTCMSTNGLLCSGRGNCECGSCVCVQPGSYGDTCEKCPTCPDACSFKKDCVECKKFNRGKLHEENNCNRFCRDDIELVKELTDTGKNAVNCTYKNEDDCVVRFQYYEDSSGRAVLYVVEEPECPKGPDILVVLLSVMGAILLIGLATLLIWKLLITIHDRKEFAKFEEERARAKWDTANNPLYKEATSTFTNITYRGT

Structure (SMILES): O=C(O)C[C@H](NC(=O)[C@@H]1CCCN(C(=O)CCC2CCNCC2)C1)c1cncc(OCCNC(=O)CN2CCN3CCN(CC(=O)O)CC(=O)[O][99Tc+]([O]C(=O)C3)[O]C(=O)C2)c1 [[Tc-99m]GP-104]
- Purity ([1]; 165 nmol cysteine, acidic conditions, after 2 hours (Table 4)): ≤ 90%
- Purity ([1]; 165 nmol cysteine, basic conditions, until 2 hours (Table 4)): < 90%
- Purity ([1]; 165 nmol cysteine, neutral conditions, even after 4 hours (Table 4)): ≥ 90%
- purity (HPLC) ([1]; Ex 3-3, addition of cysteine after reaction, pH 3, 0 hour): 82.63%
- purity (HPLC) ([1]; Ex 3-3, addition of cysteine after reaction, pH 3, 1 hour): 70.01%
- purity (HPLC) ([1]; Ex 3-3, addition of cysteine after reaction, pH 3, 2 hours): 52.58%
- purity (HPLC) ([1]; Ex 3-3, addition of cysteine after reaction, pH 3, 4 hours): 30.38%
- purity (HPLC) ([1]; Ex 3-3, addition of cysteine after reaction, pH 7, 0 hour): 91.4%
- purity (HPLC) ([1]; Ex 3-3, addition of cysteine after reaction, pH 7, 1 hour): 91.42%
- purity (HPLC) ([1]; Ex 3-3, addition of cysteine after reaction, pH 7, 2 hours): 91.1%
- purity (HPLC) ([1]; Ex 3-3, addition of cysteine after reaction, pH 7, 3 hours): 90.3%
- purity (HPLC) ([1]; Ex 3-3, addition of cysteine after reaction, pH 7, 4 hours): 90.19%
- purity (HPLC) ([1]; Ex 3-3, addition of cysteine before reaction, pH 3, 1 hour): 92.7%
- purity (HPLC) ([1]; Ex 3-3, addition of cysteine before reaction, pH 3, 2 hours): 84.17%
- purity (HPLC) ([1]; Ex 3-3, addition of cysteine before reaction, pH 3, 3 hours): 76.77%
- purity (HPLC) ([1]; Ex 3-3, addition of cysteine before reaction, pH 3, 4 hours): 69.34%
- purity (HPLC) ([1]; Ex 3-3, addition of cysteine before reaction, pH 7, 0 hour): 94.84%
- purity (HPLC) ([1]; Ex 3-3, addition of cysteine before reaction, pH 7, 1 hour): 94.43%
- purity (HPLC) ([1]; Ex 3-3, addition of cysteine before reaction, pH 7, 2 hours): 97.66%
- purity (HPLC) ([1]; Ex 3-3, addition of cysteine before reaction, pH 7, 4 hours): 97.75%
- radiochemical purity ([1]; acidic conditions): ≥ 90%
- radiochemical purity ([1]; basic conditions): ≥ 80%
- radiochemical purity ([1]; pH of 7): ≥ 98%
- Purity ([1]; pH of 7 regardless of the timing of cysteine addition, even after 4 hours (text to Table 3)): ≥ 90%
- purity (HPLC) ([1]; solution of Example 2-8 (165 nmol cysteine), pH 5.5, 0 hr): 95.26%
- purity (HPLC) ([1]; solution of Example 2-8 (165 nmol cysteine), pH 5.5, 2 hr): 91.45%
- purity (HPLC) ([1]; solution of Example 2-8 (165 nmol cysteine), pH 5.5, 4 hr): 89.28%
- purity (HPLC) ([1]; solution of Example 2-8 (165 nmol cysteine), pH 7, 0 hr): 95.26%
- purity (HPLC) ([1]; solution of Example 2-8 (165 nmol cysteine), pH 7, 2 hr): 91.19%
- purity (HPLC) ([1]; solution of Example 2-8 (165 nmol cysteine), pH 7, 4 hr): 91.61%
- purity (HPLC) ([1]; solution of Example 2-8 (165 nmol cysteine), pH 8.5, 0 hr): 95.26%
- purity (HPLC) ([1]; solution of Example 2-8 (165 nmol cysteine), pH 8.5, 2 hr): 79.83%
- purity (HPLC) ([1]; solution of Example 2-8 (165 nmol cysteine), pH 8.5, 4 hr): 51.77%
- radiochemical purity (HPLC) ([1]; solution of Example 2-9 (82.5 nmol cysteine + 82.5 nmol VB1), pH 5.5, 0 hr): 100%
- radiochemical purity (HPLC) ([1]; solution of Example 2-9 (82.5 nmol cysteine + 82.5 nmol VB1), pH 5.5, 2 hr): 92.72%
- radiochemical purity (HPLC) ([1]; solution of Example 2-9 (82.5 nmol cysteine + 82.5 nmol VB1), pH 5.5, 4 hr): 91.20%
- radiochemical purity (HPLC) ([1]; solution of Example 2-9 (82.5 nmol cysteine + 82.5 nmol VB1), pH 7, 0 hr): 100%
- radiochemical purity (HPLC) ([1]; solution of Example 2-9 (82.5 nmol cysteine + 82.5 nmol VB1), pH 7, 2 hr): 98.63%
- radiochemical purity (HPLC) ([1]; solution of Example 2-9 (82.5 nmol cysteine + 82.5 nmol VB1), pH 7, 4 hr): 98.18%
- radiochemical purity (HPLC) ([1]; solution of Example 2-9 (82.5 nmol cysteine + 82.5 nmol VB1), pH 8.5, 0 hr): 100%
- radiochemical purity (HPLC) ([1]; solution of Example 2-9 (82.5 nmol cysteine + 82.5 nmol VB1), pH 8.5, 2 hr): 83.08%
- radiochemical purity (HPLC) ([1]; solution of Example 2-9 (82.5 nmol cysteine + 82.5 nmol VB1), pH 8.5, 4 hr): 80.97%
- radiochemical purity (HPLC) ([1]; solution of Example 2-10 (82.5 nmol cysteine + 82.5 nmol VB6), pH 5.5, 0 hr): 97.24%
- radiochemical purity (HPLC) ([1]; solution of Example 2-10 (82.5 nmol cysteine + 82.5 nmol VB6), pH 5.5, 2 hr): 90.29%
- radiochemical purity (HPLC) ([1]; solution of Example 2-10 (82.5 nmol cysteine + 82.5 nmol VB6), pH 5.5, 4 hr): 90.65%
- radiochemical purity (HPLC) ([1]; solution of Example 2-10 (82.5 nmol cysteine + 82.5 nmol VB6), pH 7, 0 hr): 97.24%
- radiochemical purity (HPLC) ([1]; solution of Example 2-10 (82.5 nmol cysteine + 82.5 nmol VB6), pH 7, 2 hr): 95.61%
- radiochemical purity (HPLC) ([1]; solution of Example 2-10 (82.5 nmol cysteine + 82.5 nmol VB6), pH 7, 4 hr): 96.25%
- radiochemical purity (HPLC) ([1]; solution of Example 2-10 (82.5 nmol cysteine + 82.5 nmol VB6), pH 8.5, 0 hr): 97.24%
- radiochemical purity (HPLC) ([1]; solution of Example 2-10 (82.5 nmol cysteine + 82.5 nmol VB6), pH 8.5, 2 hr): 95.61%
- radiochemical purity (HPLC) ([1]; solution of Example 2-10 (82.5 nmol cysteine + 82.5 nmol VB6), pH 8.5, 4 hr): 91.19%
- radiochemical purity (HPLC) ([1]; solution of Example 2-14 (82.5 nmol cysteine + 82.5 nmol VB6), pH 5.5, 0 hr): 100%
- radiochemical purity (HPLC) ([1]; solution of Example 2-14 (82.5 nmol cysteine + 82.5 nmol VB6), pH 5.5, 2 hr): 97.24%
- radiochemical purity (HPLC) ([1]; solution of Example 2-14 (82.5 nmol cysteine + 82.5 nmol VB6), pH 5.5, 4 hr): 95.61%
- radiochemical purity (HPLC) ([1]; solution of Example 2-14 (82.5 nmol cysteine + 82.5 nmol VB6), pH 7, 0 hr): 100%
- radiochemical purity (HPLC) ([1]; solution of Example 2-14 (82.5 nmol cysteine + 82.5 nmol VB6), pH 7, 2 hr): 98.56%
- radiochemical purity (HPLC) ([1]; solution of Example 2-14 (82.5 nmol cysteine + 82.5 nmol VB6), pH 7, 4 hr): 98.2%
- radiochemical purity (HPLC) ([1]; solution of Example 2-14 (82.5 nmol cysteine + 82.5 nmol VB6), pH 8.5, 0 hr): 100%
- radiochemical purity (HPLC) ([1]; solution of Example 2-14 (82.5 nmol cysteine + 82.5 nmol VB6), pH 8.5, 2 hr): 92.21%
- radiochemical purity (HPLC) ([1]; solution of Example 2-14 (82.5 nmol cysteine + 82.5 nmol VB6), pH 8.5, 4 hr): 89.62%
- specific uptake in the disease model (glycoprotein IIb/IIIa): high specific uptake
- target to non target ratio (glycoprotein IIb/IIIa; gamma counter, 2nd hour): 2.0
- counts per minute (CPM)/g value, left artery (glycoprotein IIb/IIIa; [3]): 1.3 CPM/g
- counts per minute (CPM)/g value, right artery (glycoprotein IIb/IIIa; [3]): 2.5 CPM/g
- background radioactivity excretion (glycoprotein IIb/IIIa; microSPECT until 4 hours): quick background radioactivity excretion effect
- purity (HPLC) ([2]; addition of cysteine after reaction, pH 3, 3 hours): 42.46%
- purity (HPLC) ([2]; addition of cysteine before reaction, pH 3, 0 hour): 95.6%
- purity (HPLC) ([2]; addition of cysteine before reaction, pH 7, 3 hours): 98.53%

— patent publication US12527886B2, “Radiopharmaceuticals and composition for thrombus imaging” (THE ASAN FOUNDATION, priority 2020, dated 2026)
